Source: patent publication US8134012B2 (priority 2005, dated 2012)
Read-outs that look alike come from different tables or passages of the source.

How the values were obtained:
Alternaria mali = settings: active compound concentration 1 ppm; 3 days incubation in PDB; single active compound
Pyricularia oryzae = type: cell-based

| Compound | Efficacy in % found (Alternaria mali) [%] | Efficacy in % found (Pyricularia oryzae; active compound concentration 0.03 ppm, 4 days incubation in PDB, single active compound) [%] | Efficacy in % found (Pyricularia oryzae) [%] |
| --- | --- | --- | --- |
| Cc1nn(C)c(F)c1C(=O)Nc1ccccc1C(C)CC(C)C (stereo not shown) [(1-2), N-[2-(1,3-dimethylbutyl)phenyl]-5-fluoro-1,3-dimethyl-1H-pyrazole-4-carboxamide] | 83 | 20 |  |
| COP(=S)(OC)Oc1c(Cl)cc(C)cc1Cl [(2) tolclofos-methyl, tolclofos-methyl] |  |  | 13 |
| CC(C)Oc1cccc(NC(=O)c2ccccc2C(F)(F)F)c1 [(3) flutolanil, flutolanil] | 12 |  |  |
